Assay results taken from patent US9745339B2 (GRAFFINITY PHARMACEUTICALS GMBH, priority 2012, dated 2017).

Tests used:
[1] = system: poly-IgG from human serum (h-poly-IgG); assay: Microtiter plate chromatography of resins: binding and elution of human poly-IgG; settings: fraction of injected protein bound; 0.5 mg/ml IgG in PBS pH 7.3
Method in brief: (§1)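 About 30 μl resin columns loaded with 3.3 cv IgG at 0.5 mg ml^−1 in PBS (or undiluted HCP), washed with 5 cv PBS, eluted with 5 cv glycine pH 2.5. Fractions quantified by Bradford; bound fraction = (mi−mft)/mi, yield = me/mi.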

Bevacizumab [2] = target: T1, Bevacizumab (Homo sapiens, UniProt P01857); assay: Uptake kinetics by batch adsorption (time-scale of binding); settings: time after which 80% of equilibrium saturation occurred; 0.75 mg/ml Bevacizumab in PBS, 25° C.
T1 construct: 0.5 mg/ml IgG in PBS pH 7.3; ligand immobilized on SEPHAR; Bevacizumab Yield; other: mass eluted (glycine pH 2.5) / mass injected; kd (dissociation constant, Langmuir isotherm); other: Bevacizumab 0.05-5 mg/ml in PBS pH 7.3, 25° C., at least 3 h; qm (maximum capacity); other: mg Bevacizumab per ml of resin; Langmuir isotherm; t0; fused on or other part: Humanized anti-VEGF-A VH domain joined N-terminally to the IGHG1 constant region (engineered, no UniProt entry)

Bevacizumab [3] = target: T1, Bevacizumab; assay: Dynamic binding capacity by column chromatography
Protocol: Dynamic binding capacities were determined by column chromatography with purified Bevacizumab. Resins were packed into analytical columns of 25 mm length and 3 mm inner diameter. Columns were fed with 1 mg/ml antibody in phosphate-buffered saline (150 mM NaCl, 20 mM phosphate buffer, pH 7.3) at a flow rate of 50 cm/h (3 min column residence time), while the concentration of antibody in effluents was monitored online via absorbance at 280 nm. Antibody was loaded until complete breakthrough of the feed. Dynamic binding capacities were determined at the 10% breakthrough. Equilibrium capacities were determined by integration of the area above the breakthrough curve. Bound antibody was stripped from columns by elution with glycine at pH 3.0.
It was calculated as the time t0.1 after which 10% breakthrough occurred, multiplied by the flow rate F and feed concentration cf. dynamiccapacity=t0.1·F·cf
Equilibrium capacity is defined as the maximum amount of antibody that binds to a column for a given feed stream concentration. It was calculated by evaluation of the following integral
[formula] containing the feed concentration cf, effluent concentration over time c(t) and flow rate F. The integral was evaluated numerically. Integration was limited to the time after which complete breakthrough had occurred. […]

[4] = Alkaline stability of ligands in 0.5 M sodium hydroxide; assay type: physicochemical; settings: 25° C., 8 days, hydrolysis monitored by LC-MS, read-out: t0.5 (half-life) (converted)
Protocol: A subset of ligands from Example 1 was tested for its alkaline stability. Ligands were treated with 0.5 M sodium hydroxide at 25° C. for 8 days. Hydrolysis was monitored by LC-MS analysis.

Palivizumab = assay: Microtiter plate chromatography of resins: binding and elution of Palivizumab; settings: fraction of injected protein bound; 0.5 mg/ml IgG in PBS pH 7.3
Method in brief: as §1

Tocilizumab = assay: Microtiter plate chromatography of resins: binding and elution of Tocilizumab; settings: fraction of injected protein bound; 0.5 mg/ml IgG in PBS pH 7.3
Method in brief: as §1

Bevacizumab [5] = target: T1, Bevacizumab; assay: Langmuir isotherms by batch adsorption; assay type: binding; settings: mg Bevacizumab per ml of resin; Langmuir isotherm
Cetuximab = assay: Microtiter plate chromatography of resins: binding and elution of Cetuximab; settings: fraction of injected protein bound; 0.5 mg/ml IgG in PBS pH 7.3
Method in brief: as §1

host cell proteins (HCP) = assay: Microtiter plate chromatography of resins: binding of host cell proteins; set-up: species or system CHO cell culture; settings: fraction of injected undiluted host cell proteins bound
Method in brief: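 Undiluted HCP-containing flowthrough from protein A chromatography of CHO serum-free culture was loaded onto ~30 µl packed resin columns in microtiter-plate format. Columns were washed with 5 cv PBS and eluted with glycine pH 2.5, and fractions were quantified by Bradford. Bound fraction = (injected − flowthrough mass)/injected mass.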

Bevacizumab [6] = target: T1, Bevacizumab; assay: Microtiter plate chromatography of resins: binding and elution of Bevacizumab
Method in brief: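 About 30 μl packed resin columns loaded with 3.3 cv IgG at 0.5 mg ml^−1 in PBS or undiluted HCP, washed with 5 cv PBS, eluted with 5 cv glycine pH 2.5. Protein in fractions by Bradford. Bound fraction = (injected − flowthrough)/injected; yield = eluted/injected; selectivity = Bevacizumab bound fraction / HCP bound fraction, truncated beyond 10.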

## NCCCn1cnc2cc(C(=O)Nc3nnc(-c4ccco4)s3)ccc21 [Ligand L05, 1-(3-Amino-1-propyl)benzimidazole-5-carboxylic acid N-[5-(2-furyl)-1,3,4-thiadiazol-2-yl]amide]
[1]
  h-poly-IgG Bound: 100%
Bevacizumab [2]
  t0.8 (time-scale of binding): 9.8 min
Bevacizumab [3]; 10% breakthrough, 1 mg/ml Bevacizumab, 50 cm/h (3 min residence time)
  Dynamic Capacity: 25 mg/mL
Bevacizumab [3]; feed concentration 1 mg/ml Bevacizumab, integration above breakthrough curve
  Equilibrium Capacity: 39 mg/mL
[4]
  half-life: > 41.6 days
Palivizumab
  Palivizumab Bound: 100%
Tocilizumab
  Tocilizumab Bound: 100%
Bevacizumab [5]
  qm (maximum capacity): 47 mg/mL
Cetuximab
  Cetuximab Bound: 100%
Host cell proteins (HCP)
  HCP Bound: 17%
Bevacizumab [6]; fraction of injected protein bound, 0.5 mg/ml IgG in PBS pH 7.3, ligand immobilized on SEPHAROSE 4 FF
  Bevacizumab Bound: 100%
Bevacizumab [6]; mass eluted (glycine pH 2.5) / mass injected
  Bevacizumab Yield: 101%
